Columns and labels:
Format in all cases: cell-based
K562 cells = assay: In-vitro cell viability assay (CellTiter-Glo), K562; details: Homo sapiens
Experimental: (§1) Tnk1 is known to drive proliferation and survival of Hodgkin's lymphoma (HL) cells, such as K652 and L540 cell lines (Gu et al., Identification of activated Tnk1 kinase in Hodgkin's lymphoma, Leukemia 24: 861-65 ((2010)). Downregulation of Tnk1 inhibits cell growth and proliferation, and increases apoptosis. To study the individual test compounds in the context of HL cells, CellTiter-Glo® assays (Promega, Madison, Wis.) were performed according to the manufacturer's instructions. The CellTiter-Glo® assay system uses a thermostable luciferase to generate a stable “glow-type” luminescent signal while simultaneously inhibiting endogenous enzymes released during cell lysis (e.g., ATPases). As such, the assay provides a sensitive and stable luminescent output.
(§2) Reagent Preparation • 1. The CellTiter-Glo® Buffer was thawed and equilibrated to room temperature prior to use. • 2. The lyophilized CellTiter-Glo® Substrate was equilibrated to room temperature prior to use. • 3. An appropriate volume of CellTiter-Glo® Buffer was transferred into the amber bottle containing CellTiter-Glo® Substrate according the manufacturer's recommendation. The reconstituted lyophilized enzyme/substrate mixture formed the CellTiter-Glo® Reagent. • 4. The CellTiter-Glo® Reagent was mixed by gently vortexing, swirling or inverting the contents to obtain a homogeneous solution.
(§3) Protocol for the Cell Viability Assay • 1. A titration of the K652 or L540 cells was performed to determine the optimal number and ensure that the CellTiter-Glo® Assay was performed within the linear range. • 2. Opaque-walled multiwell plates (compatible with the luminometer) were prepared with K652 or L540 cells in culture medium, 100 μl per well for 96-well plates or 25 μl per well for 384-well plates. • 3. Control wells containing medium without cells were prepared to obtain a value for background luminescence. • 4. Test compound was added to experimental wells, and incubated according to culture protocol. • 5. The plate and its contents were equilibrated at room temperature for approximately 30 minutes.
(§4) Protocol for Generating an ATP Standard Curve • 1. 1 μM ATP was prepared in culture medium (100 μl of 1 μM ATP solution contains 10^−10 moles ATP). • 2. Serial tenfold dilutions of ATP in culture medium (1 μM to 10 nM; 100 μl contains 10^−10 to 10^−12 moles of ATP) were performed. • 3. A multiwell plate with varying concentrations of ATP standard in 100 μl medium (25 μl for a 384-well plate) was prepared. • 4. A volume of CellTiter-Glo® Reagent equal to the volume of ATP standard present in each well was added. • 5. Contents were mixed for 2 minutes on an orbital shaker. • 6. The plate was allowed to incubate at room temperature for 10 minutes to stabilize the luminescent signal. • 7. Luminescence was recorded.

L540 cells = assay: In-vitro cell viability assay (CellTiter-Glo), L540; details: Homo sapiens, L-540
Experimental: as §1, §2, §3, §4

[1] = system: phospho-STAT5 in L540 cells; assay: In vitro pSTAT5 assay (ELISA) in L540 cells; details: Homo sapiens, L-540, 24 hours, normalized to cell viability, read-out: P-STAT5 Assay IC50
Experimental: The L540 cell line harbors a truncating mutation in the C-terminal regulatory region of the protein. As a consequence, TNK1 in L540 cells is constitutively active in phosphorylating key proteins, including STAT5. In TNK1 wild-type conditions (e.g., K562 CML cells), STAT5 phosphorylation is achieved in a TNK1-independent fashion. As such, reductions in phospho-STAT5 signal specific to the L540 cells are a good readout of TNK1 inhibitor function.
Methods: The in vitro pSTAT5 assay was performed with STAT5 AB (pY964/699) SimpleStep ELISA Kit (Abcam No. ab176656) according to the manufacturer's protocol. Briefly, L540 cells were grown in RPMI1640 media under standard culture conditions (10% FBS with penicillin/streptomycin). To assess test compound effects, cells were plated in 96 well plates (250,000 cells/mL) and allowed to grow overnight. Cells were subsequently treated with varying concentrations of test compound for 24 hours, before being harvested and interrogated with the STAT5 AB (pY964/699) SimpleStep ELISA Kit according to the manufacturer's protocol. Phospho-STAT5 signal was normalized to cell viability, as assessed by the CellTiter-Glo assay (Promega, Cat. No. G7570) on treated cells. TNK1 inhibitor IC50s were determined using Graphpad Prism software on normalized phospho-STAT5 measurements.

SMILES	IC50 (K562 cells) [µM]	IC50 (L540 cells) [µM]	IC50 [1] [nM]
CN1CCN(c2ccc(Nc3ncc(Cl)c(Nc4cccnc4N4CCCC4=O)n3)cc2)CC1 [compound 1, 1-(3-((5-chloro-2-((4-(4-methylpiperazin-1-yl)phenyl)amino)pyrimidin-4-yl)amino)pyridin-2-yl)pyrrolidin-2-one]	< 0.5	0.5 to 1.5	< 5
CC(C)Oc1cc(N2CCN(C)CC2)ccc1Nc1ncc(Cl)c(Nc2cccnc2N(C)C)n1 [compound 4, 5-chloro-N^4-(2-(dimethylamino)pyridin-3-yl)-N^2-(2-isopropoxy-4-(4-methylpiperazin-1-yl)phenyl)pyrimidine-2,4-diamine]	1.5 to 6	≥ 6	> 50
COc1cc(N2CCN(C)CC2)ccc1Nc1ncc(Cl)c(Nc2cccnc2N2CCCC2=O)n1 [compound 2, 1-(3-((5-chloro-2-((2-methoxy-4-(4-methylpiperazin-1-yl)phenyl)amino)pyrimidin-4-yl)amino)pyridin-2-yl)pyrrolidin-2-one]	1.5 to 6	0.5 to 1.5	< 5
COc1cc(N2CCN(C)CC2)c(Cl)cc1Nc1ncc(Cl)c(Nc2cccnc2N2CCCC2=O)n1 [Example No. 13, 1-(3-((5-chloro-2-((5-chloro-2-methoxy-4-(4-methylpiperazin-1-yl)phenyl)amino)pyrimidin-4-yl)amino)pyridin-2-yl)pyrrolidin-2-one]	1.5 to 6	< 0.5	< 5
CCOc1cc(N2CCN(C)CC2)ccc1Nc1ncc(Cl)c(Nc2cccnc2N(C)C)n1 [compound 3, 5-chloro-N^4-(2-(dimethylamino)pyridin-3-yl)-N^2-(2-ethoxy-4-(4-methylpiperazin-1-yl)phenyl)pyrimidine-2,4-diamine]		≥ 6	5 to 50

Second part, led by results:

IC50 (K562 cells) [µM]	SMILES	IC50 (L540 cells) [µM]	IC50 [1] [nM]
≥ 6	COc1cc(N2CCN(C)CC2)c(C)cc1Nc1ncc(Cl)c(Nc2cccnc2N2CCNC2=O)n1 [compound 9, 1-(3-((5-chloro-2-((2-methoxy-5-methyl-4-(4-methylpiperazin-1-yl)phenyl)amino)pyrimidin-4-yl)amino)pyridin-2-yl)imidazolidin-2-one]	< 0.5	< 5
≥ 6	COc1cc(N2CCN(C)CC2)c(C)cc1Nc1ncc(Br)c(Nc2cccnc2N(C)C)n1 [compound 10, 5-bromo-N^4-(2-(dimethylamino)pyridin-3-yl)-N^2-(2-methoxy-5-methyl-4-(4-methylpiperazin-1-yl)phenyl)pyrimidine-2,4-diamine]	< 0.5	< 5
1.5 to 6	CN1CCN(c2ccc(Nc3ncc(Cl)c(Nc4cccnc4N(C)C)n3)cc2)CC1 [compound 5, 5-chloro-N^4-(2-(dimethylamino)pyridin-3-yl)-N^2-(4-(4-methylpiperazin-1-yl)phenyl)pyrimidine-2,4-diamine]	0.5 to 1.5	< 5
≥ 6	COc1cc(N2CCN(C)CC2)c(Cl)cc1Nc1ncc(Cl)c(Nc2cccnc2N2CCNC2=O)n1 [Example No. 21, 1-(3-((5-chloro-2-((5-chloro-2-methoxy-4-(4-methylpiperazin-1-yl)phenyl)amino)pyrimidin-4-yl)amino)pyridin-2-yl)imidazolidin-2-one]	1.5 to 6	< 5
≥ 6	CN1CCN(c2c(Cl)cc(Nc3ncc(Cl)c(Nc4cccnc4N4CCCC4=O)n3)c3ccccc23)CC1 [Example No. 18, 1-(3-((5-chloro-2-((3-chloro-4-(4-methylpiperazin-1-yl)naphthalen-1-yl)amino)pyrimidin-4-yl)amino)pyridin-2-yl)pyrrolidin-2-one]	< 0.5	< 5
